Source: article PMC6463685, “WS-5 Extract of Curcuma longa, Chaenomeles sinensis, and Zingiber officinale Contains Anti-AChE Compounds and Improves β-Amyloid-Induced Memory Impairment in Mice” (Evidence-based Complementary and Alternative Medicine : eCAM, 2019)

Biological target: T1, acetylcholinesterase (AChE)
T1 construct: AChE used with commercial BioVision colorimetric AChE assay kit
Assay: colorimetric AChE kit (choline oxidase/probe), […] nm
Type: biochemical
Details: 37°C, 20 min, AChE substrate 5 mM

## O=C(O)c1ccc(O)c(O)c1 [Protocatechuic acid]
Also printed as 10.42 μg/ml
  IC50: 67.6 µM

## CCCCC/C=C/C(=O)CCc1ccc(O)c(OC)c1 [6-Shogaol]
Also printed as 17.92 μg/ml
  IC50: 64.8 µM
